A short description of series [1]: Cytotoxicity against HEK293 cells assessed as reduction in cell viability by MTS assay. The format is cell-based. The following applies: human.
Series [2] has as its system Influenza A virus. Briefly: Antiviral activity against influenza A virus (A/PR/8/34) infected in HEK293 cells after 24 hrs by firefly luciferase reporter gene based vRNP-reconstitution assay. In kind it is functional, cell-based. The conditions noted are these: A/Puerto Rico/8/1934(H1N1), HEK293, 24 h.
The nature of series [3]: Inhibition of recombinant influenza A virus A/X-31 N-terminal 6His tagged-PA endonuclease (1 to 217 residues) expressed in Escherichia coli BL21-CodonPlus cells after 2 hrs using single stranded circular DNA plasmid M13mp18 as substrate by ethidium bromide staining based agarose gel electrophoresis. Set-up: species or system Influenza A virus (A/X-31(H3N2)).
Series [4] is described as follows: Antiviral activity against influenza A virus (A/WSN/33 (H1N1)) infected in MDCK cells after 48 hrs by crystal violet staining based plaque reduction assay. The format is functional, cell-based, Influenza A virus (A/WSN/1933(H1N1)).
The nature of series [5]: Cytotoxicity against MDCK cells assessed as reduction in cell viability after 48 hrs by WST-1 assay. The format is cell-based, Canis lupus familiaris. The following applies: dog.
Series [6] concerns Influenza A virus. The experiment in a line: Antiviral activity against influenza A virus (A/PR/8/34) infected in MDCK cells assessed as reduction in viral yield incubated for 30 mins prior to infection measured after 24 hrs by plaque reduction assay. In kind it is functional, cell-based. The following applies: A/Puerto Rico/8/1934(H1N1).
For series [7], the target named is Polymerase acidic protein (Influenza A virus (A/Puerto Rico/8/1934(H1N1)), UniProt P03433). The experiment in a line: Inhibition of influenza A virus (A/PR/8/34) N-terminal PA endonuclease using 880 nucleotide ALMV cap1 primer RNA as substrate.
Series [8] is described as follows: Antiviral activity against influenza A virus (A/HK/415742/09(H1N1)) infected in MDCK cells by plaque reduction assay. The format is functional, cell-based, Influenza A virus (A/Hong Kong/415742/2009(H1N1)).
Series [9] can be described thus: Binding affinity to influenza A virus PA endonuclease by isothermal titration calorimetry.
Series [10] in a line: Cytotoxicity against MDCK cells by MTT assay. In kind it is cell-based, Canis lupus familiaris. The conditions noted are these: dog.
Series [11] is described as follows: Inhibition of influenza A virus N-terminal PA endonuclease.
In series [12] the test system is Influenza B virus. The experiment in a line: Antiviral activity against influenza B virus (B/Yamagata/16/88) infected in MDCK cells after 2 to 3 days by crystal violet staining based plaque reduction assay. The conditions noted are these: B/Yamagata/16/1988, MDCK. The format is functional, cell-based.
Series [13] is described as follows: Antiviral activity against influenza A virus (A/Chile/1/83) infected in MDCK cells after 2 to 3 days by crystal violet staining based plaque reduction assay. The format is functional, cell-based, Influenza A virus (A/Chile/1/1983(H1N1)).
The nature of series [14]: Cytotoxicity against MDCK cells after 48 hrs by MTT assay. The format is cell-based, Canis lupus familiaris. The following applies: dog.
A short description of series [15]: Antiviral activity against influenza A virus (A/Sydney/5/97) infected in MDCK cells after 2 to 3 days by crystal violet staining based plaque reduction assay. The format is functional, cell-based, Influenza A virus (A/Sydney/5/1997(H3N2)).
Series [16] can be described thus: Inhibition of recombinant influenza A virus A/X-31 N-terminal PA endonuclease (1 to 217 residues) after 2 hrs using single stranded circular DNA plasmid M13mp18 as substrate by ethidium bromide staining based agarose gel electrophoresis. More on the design: species or system Influenza A virus (A/X-31(H3N2)).
Series [17] has as its system Influenza A virus. The experiment in a line: Antiviral activity against influenza A virus infected in HEK293 cells after 24 hrs by firefly luciferase reporter gene based vRNP-reconstitution assay. In kind it is functional, cell-based. The conditions noted are these: HEK293, 24 h.
In series [18] the test system is Influenza A virus. The experiment in a line: Antiviral activity against influenza A virus ((A/PR/8/34) infected in MDCK cells assessed as reduction in viral yield after 24 hrs by qRT-PCR assay. The conditions noted are these: A/Puerto Rico/8/1934(H1N1). The format is functional.
Series [19] in a line: Cytotoxicity against MDCK cells assessed as reduction in cell viability after 24 hrs by MTS assay. In kind it is cell-based, Canis lupus familiaris. The conditions noted are these: dog.
Series [20] in a line: Cytotoxicity against HEK293 cells assessed as reduction in cell viability after 24 hrs by MTS assay. In kind it is cell-based. The conditions noted are these: human.
Series [21] relates to Influenza A virus. Briefly: Antiviral activity against influenza A virus. The format is functional.
The nature of series [22]: Inhibition of recombinant influenza A virus A/X-31 N-terminal 6His tagged-PA endonuclease (1 to 217 residues) expressed in Escherichia coli BL21-CodonPlus cells after 1 hr using single stranded circular DNA plasmid M13mp18 as substrate by ethidium bromide staining based agarose gel electrophoresis. Set-up: species or system Influenza A virus (A/X-31(H3N2)).
In series [23] the test system is Influenza A virus. Briefly: Antiviral activity against influenza A virus H1N1 infected in MDCK cells assessed as reduction of virus-induced cytopathic effect after 48 hrs by CellTiter-Glo luminescent assay. In kind it is functional, cell-based.
The nature of series [24]: Cytotoxicity against MDCK cells assessed as reduction in cell viability after 48 hrs in presence of 5 % serum by CellTiter-Glo luminescent assay. The format is cell-based, Canis lupus familiaris. The following applies: dog.
Another series has as its system Influenza A virus (H1N1). The experiment in a line: Antiviral activity against influenza A virus H1N1-pdm09 infected in MDCK cells assessed as reduction of virus-induced cytopathic effect after 48 hrs by CellTiter-Glo luminescent assay. The format is functional, cell-based.
In another series the test system is H5N1 subtype. The experiment in a line: Antiviral activity against influenza A virus H5N1 infected in MDCK cells assessed as reduction of virus-induced cytopathic effect after 48 hrs by CellTiter-Glo luminescent assay. In kind it is functional, cell-based.
A short description of series [25]: Antiviral activity against influenza A virus H7N9 infected in MDCK cells assessed as reduction of virus-induced cytopathic effect after 48 hrs by CellTiter-Glo luminescent assay. In kind it is functional, cell-based, H7N9 subtype.
The nature of series [26]: Cytotoxicity against MDCK cells assessed as reduction in cell viability after 48 hrs in serum free conditions by CellTiter-Glo luminescent assay. In kind it is cell-based, Canis lupus familiaris. The conditions noted are these: dog.
The subject of another series is Influenza A virus H3N2. Briefly: Antiviral activity against influenza A virus H3N2 infected in MDCK cells assessed as reduction of virus-induced cytopathic effect after 48 hrs by CellTiter-Glo luminescent assay. The format is functional, cell-based.
Series [27] concerns Influenza B virus. The experiment in a line: Antiviral activity against influenza B virus infected in MDCK cells assessed as reduction of virus-induced cytopathic effect after 48 hrs by CellTiter-Glo luminescent assay. In kind it is functional, cell-based.
Series [28] can be described thus: Antiviral activity against influenza A virus H9N2 infected in MDCK cells assessed as reduction of virus-induced cytopathic effect after 48 hrs by CellTiter-Glo luminescent assay. The format is functional, cell-based, H9N2 subtype.

Take `NC(=O)N/N=C/c1cccc(O)c1O`: in [1], the 50% cytotoxic concentration (CC50) was more than 200 µM. Further, in the series on Influenza A virus [2], the concentration giving a half-maximal response (EC50) came to 107 µM. Besides, the half-maximal inhibitory concentration (IC50) in series [3] came to 24 µM.
Consider `O=C(O)/C(O)=C/C(=O)c1cccn1Cc1ccc(F)cc1`, for which the IC50 in series [3] was found to be 0.8 µM.
In series [4], `OC(CN1CCCCC1)Cn1c2c(c3ccccc31)CCCC2` (stereo unspecified) returned an EC50 of 36.5 µM. Besides, the CC50 at 48 h in series [5] is more than 200 µM.
Consider `O=C(O)/C(O)=C/C(=O)C1(Cc2ccc(Cl)cc2)CCN(CC2CCCCC2)CC1`, for which the concentration giving a half-maximal response (EC50) with Influenza A virus [6] lay in the range of 0.18 to 0.71 µM.
In series [7], `CC(C)/C=C1\N=C(CC(C)C)C(=O)N(O)C1=O` displayed an IC50 of 5.1 to 5.5 µM.
Take `CN(C)c1ccc(/C=C2\C/C(=N\N=C3\C(=O)Nc4ccccc43)NC2=O)cc1`: the EC50 in [8] was determined as 1.5 µM. This molecule yielded a Kd in series [9] of 1.3 µM. Also, the half-maximal cytotoxic concentration (CC50) in series [10] is more than 300 µM.
In turn, `O=c1[nH]cc(Br)cc1O` showed an IC50 in series [11] of 16 µM.
On to `O=C1Nc2ccccc2/C1=N\N=C1/C/C(=C2\C(=O)Nc3ccccc32)C(=O)N1`, for which the EC50 in [8] was determined as 0.8 µM. The dissociation constant Kd in [9] turned out to be 1.1 µM. In [10], this molecule returned a CC50 of more than 400 µM.
Consider `O=C(O[C@@H]1Cc2c(O)cc(O)cc2O[C@@H]1c1cc(O)c(O)c(O)c1)c1cc(O)c(O)c(O)c1` [EPIGALOCATECHIN GALLATE], for which the half-maximal effective concentration (EC50) in the series with Influenza B virus [12] stood at 26.1 µM; in [13], 28.4 µM; in series [15] it was 22.8 µM. The same molecule came in with a CC50 at 48 h in series [14] of 275 µM.
For the molecule `O=C(N/N=C/c1cc(O)c(O)c(O)c1)c1cc(O)c(O)c(O)c1`, the IC50 in [16] came out at 8.7 µM. This molecule also showed an EC50 in the series on Influenza A virus [17] of 3.1 µM. Also, the concentration for an effect of 90% (EC90) with Influenza A virus [18] stood at 3.5 µM. The half-maximal cytotoxic concentration (CC50) at 24 h in series [19] and in series [20] was more than 200 µM throughout.
As for `NC(=S)N/N=C/c1cccc(O)c1O`, the 50% cytotoxic concentration (CC50) in series [1] is more than 200 µM. In the series with Influenza A virus [2], this molecule displayed an EC50 of 63 µM. In addition, the concentration for half-maximal inhibition (IC50) in series [3] came to 37 µM.
In the case of `O=C(O)/C(O)=C/C(=O)C1(Cc2ccc(Cl)cc2)CCCN(S(=O)(=O)Cc2ccccc2)C1` (stereo unspecified), the EC50 in the series with Influenza A virus [6] was 0.18 to 0.71 µM.
As for `CC(=O)Nc1cccc(-c2nc(C(=O)O)c(O)c(=O)[nH]2)c1`, the EC50 with Influenza A virus [21] was more than 50 µM.
On to `O=C(NCc1ccc(F)cc1)c1cccc(O)c1O`, for which the 50% inhibitory concentration (IC50) in series [22] stood at 33 µM.
`O=C(O)/C(O)=C/C(=O)C1(Cc2ccc(Cl)cc2)CCCN(Cc2ccccc2)C1` (stereo unspecified): in the series on Influenza A virus [6], the EC50 is 0.18 to 0.71 µM.
The molecule `Cn1cnc(-c2nc(C(=O)O)c(O)c(=O)[nH]2)c1` yielded an EC50 with Influenza A virus [21] of more than 50 µM.
Consider `O=C(O[C@@H]1Cc2c(O)cc(O)cc2O[C@@H]1c1ccc(O)c(O)c1)c1cc(O)c(O)c(O)c1` [EPICATECHIN GALLATE], for which the EC50 in the series on Influenza B virus [12] turned out to be 40.4 µM; in series [13], 26.4 µM; in [15] it was 22.2 µM. For the same molecule, in series [14], the CC50 at 48 h was 526 µM.
Turning to `C[C@@H](N1CN([C@H]2c3ccccc3CSc3ccccc32)n2ccc(=O)c(O)c2C1=O)C(F)(F)F`, the EC50 in the series on Influenza A virus [23] is 0.0083 µM; in the series with Influenza A virus (H1N1), 0.007 µM; in the series on H5N1 subtype, 0.0139 µM; in series [25], 0.0154 µM; with Influenza A virus H3N2, 0.0085 µM; in the series on Influenza B virus [27], 0.0128 µM. For the same molecule, the EC50 in series [28] came out at 0.0122 µM. Besides, the CC50 at 48 h in series [24] was determined as 86.2 µM; in series [26], 11.9 µM.
With `O=C(O)/C(O)=C/C(=O)C1(Cc2ccc(Cl)cc2)CCN(Cc2ccc(Cl)cc2)CC1`, the EC50 with Influenza A virus [6] fell in the range of 0.18 to 0.71 µM.

These data come from ChEMBL document CHEMBL4007398, “Inhibitors of Influenza Virus Polymerase Acidic (PA) Endonuclease: Contemporary Developments and Perspectives” (J Med Chem, 2017).
